Measurements from patent US20200404907A1, “METHOD OF REDUCING CROP DAMAGE” (BAYER AKTIENGESELLSCHAFT, priority 2018, published 2020).

Tests used:
[1] = system: wheat seeds (winter wheat, TRZAW); assay: Method D: safener seed treatment then pre-emergence herbicide plus safener tank mix, visual crop damage; format: in vivo
Protocol: (§1) For the safener seed treatment, sufficient seeds were weighed into screw top glass bottles approximately twice the volume of the seeds.
(§2) The safener (mefenpyr-diethyl, formulated as suspension concentrate (SC)) was weighed out so that the required rates (g a.i./kg seed) would be obtained, dissolved in water (1 ml water per 10 g of seeds), and added to the seeds to produce a slurry.
(§3) The bottles were capped and then placed in an overhead shaker (set at medium speed for up to 1 hour) so that the seeds were evenly coated with the slurry. The bottles were uncapped and the seeds were sown as described above.
(§4) For the seed treatment process, the blind formulation (the SC formulation without the safener mefenpyr-diethyl) was used as seed treatment as described above.

[2] = system: wheat seeds (winter wheat, TRZAW); assay: Method A: safener seed treatment then post-emergence herbicide, visual crop damage in greenhouse pots; format: in vivo
Protocol: as §1, §2, §3, §4

[3] = system: wheat seeds (winter wheat, TRZAW); assay: Method C: safener seed treatment then post-emergence herbicide plus safener tank mix, visual crop damage; format: in vivo
Protocol: as §1, §2, §3, §4

[4] = system: wheat seeds (winter wheat, TRZAW); assay: Prior-art method: post-emergence herbicide and tank-mix safener, visual crop damage in greenhouse pots; details: herbicide 200 g/ha post-emergence (BBCH11); no safener; 14 days after application; mean of at least 3 replicates
[5] = herbicide 200 g/ha post-emergence (BBCH11), no safener, 14 days after application
[6] = safener seed treatment 0.5 g/kg only, no herbicide

Row | Structure (SMILES) | % crop damage ([1]; herbicide 50 g/ha pre-emergence, no safener, 14 days after application) | % crop damage [2, 5] | % crop damage [3, 5] | % crop damage [4] | % crop damage ([1]; safener 200 g/ha in tank mix pre-emergence only, no herbicide, 14 days after application) | % crop damage [1, 6] | % crop damage [2, 6] | % crop damage ([3]; safener 200 g/ha in tank mix post-emergence only, no herbicide, 14 days after application) | % crop damage [3, 6]
1 | Cc1ccccc1CO[C@@H]1C[C@@]2(C(C)C)CC[C@]1(C)O2 (racemic) [Herbicide post-em., Cinmethylin] | 17% | 28% | 28% | 28% | – | – | – | – | –
2 | CCOC(=O)C1=NN(c2ccc(Cl)cc2Cl)C(C)(C(=O)OCC)C1 (stereo not drawn) [Safener seed treatment, ethyl 1-(2,4-dichlorophenyl)-5-(ethoxycarbonyl)-5-methyl-2-pyrazoline-3-carboxylate] | – | – | – | – | 5% | 2% | 0% | 5% | 0%
